From PubChem BioAssay (NCI)
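Briefly, cells in 96-well plates were exposed to five compound concentrations for 48 h, and endpoints were estimated by linear interpolation. GI50 = concentration required for 50% inhibition of growth. TGI: concentration producing complete growth inhibition.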

Columns and labels:
Experiment in all cases: inhibition of tumour cell growth, NCI panel, 48 h
[1] = tested on: CAKI-1 renal
[2] = tested on: MCF7 breast
[3] = tested on: K-562 leukemia
[4] = tested on: SK-MEL-2 melanoma
[5] = tested on: NCI-H23 lung
[6] = tested on: CCRF-CEM leukemia
[7] = tested on: A549 NSCLC
[8] = tested on: SN12C renal
[9] = tested on: NCI-H460 lung
[10] = tested on: EKVX NSCLC

Row | SMILES | GI50 [1] [µM] | TGI [1] [µM] | GI50 [2] [µM] | TGI [2] [µM] | GI50 [3] [µM] | TGI [3] [µM] | GI50 [4] [µM] | TGI [4] [µM] | GI50 [5] [µM] | TGI [5] [µM] | GI50 [6] [µM] | TGI [6] [µM] | GI50 [7] [µM] | TGI [7] [µM] | GI50 [8] [µM] | TGI [8] [µM] | GI50 [9] [µM] | TGI [9] [µM] | GI50 [10] [µM] | TGI [10] [µM]
1 | Cn1cc(C2=C(c3cn(C)c4c(N)cccc34)C(=O)NC2=O)c2ccccc21 | 0.857 | > 25 | 0.673 | > 20.9 | 0.385 | > 25 | 1.56 | 11 | 4.33 | 21.3 | 0.797 | > 25 | 1.39 | > 25 | 2.12 | > 25 | 1.08 | > 25 |  | 
2 | Cn1cc(C2=C(c3cn(CCCN=C(N)N)c4ccccc34)C(=O)NC2=O)c2ccccc21 | > 25 | > 25 | > 25 | > 25 | > 25 | > 25 | > 18.4 | > 25 | > 25 | > 25 | > 25 | > 25 | > 25 | > 25 | > 19.8 | > 25 | > 25 | > 25 |  | 
3 | COc1cc2c(/C=C3/C(=O)Nc4cccc(Cl)c43)c(Cl)n(Cc3ccccc3)c2cc1C | 2.46 | 31.4 | 3.88 | > 45.3 | 5.22 | > 100 | 11 | 68.2 | 4.59 | 15 | 4.83 | > 100 | 4.76 | > 100 | 6.18 | > 35 | 5.46 | > 56.3 | 6.84 | > 26.4
4 | COc1ccc(C2CC(=O)c3c(O)c(OC)c(OC)c(OC)c3O2)c(O)c1 (stereo not given) | 0.781 | 60.4 | 0.0462 | 15.7 | 0.0378 | 26.2 | 0.0809 | 23.4 | 0.392 | 18.6 | 0.134 | 31.5 | 0.41 | 28.8 | 1.23 | 70.4 | 0.0637 | 10.9 | 0.232 | 88.8
5 | COc1cc([C@@H]2c3cc4c(cc3C(O[C@@H]3O[C@@H]5CO[C@@H](c6cccs6)OC5[C@H](O)[C@H]3O)C3COC(=O)[C@@H]32)OCO4)cc(OC)c1O (stereo not given in full) | 0.0997 | 6.98 | 0.00975 | 16.5 | 0.111 | 19.3 | 0.207 | 0.87 | 0.0288 | 0.482 | 0.00941 | 0.175 | 0.0209 | 0.822 | 0.0272 | 5.68 | < 0.005 | 0.278 | 0.677 | 14.4
6 | NC(N)=NC(N)=Nc1cc2ccccc2c2ccccc12 |  |  | 3.7 | 18.8 | 4.34 | 21.9 | 13.6 | 30.5 | 12.3 | 29.7 | 8.61 | 30.5 | 4.58 | 18.1 | 5.3 | 19.9 | 5.13 | 19.4 | 12 | 29.1
7 | COc1ccc(-c2cc3c(nn2)-c2ccccc2C3=O)cc1 | > 100 | > 100 | 36.1 | > 100 | > 100 | > 100 |  | > 10 | > 100 | > 100 | 9.52 | > 100 | > 100 | > 100 | > 100 | > 100 | > 100 | > 100 |  | > 10
8 | COc1cccc(N=Cc2c3ccccc3c(=O)n3c2oc2ccccc23)c1 | 2.92 | 11.5 | 4.06 | > 100 | 2.09 | 6.05 | > 100 | > 100 | 13.3 | 59 | 4.58 | 73.2 | 4.84 | 23.7 | 2.22 | 23.5 | 11.3 | > 100 | 17.3 | > 100
9 | COc1cc(Cn2c(-c3ccccc3)cc3c2-c2oncc2CC3)cc(OC)c1OC | 0.566 | > 100 | 0.443 | 22.3 | 0.364 | > 100 | 18.6 | > 100 | 2.57 | > 100 | 0.857 | > 100 | 1.15 | > 100 | 5.84 | > 100 | 0.452 | > 100 | 1.39 | > 100
10 | NCCCCn1c2c(c3ccccc3c1=O)C(=O)c1ccccc1-2 | 0.0447 | 0.555 | < 0.0359 |  | 0.168 |  | 2.38 | > 42.4 | 0.129 | 0.655 | 0.0195 | 1.6 | 0.0263 | 0.361 | 0.0385 | 0.244 | < 0.0218 | 0.614 | 1.21 | 4.62
11 | COc1ccc(C2CC(=O)c3c(OC)cc(OC)cc3O2)cc1 (stereo not given) | > 100 | > 100 | > 100 | > 100 | > 100 | > 100 | > 100 | > 100 | > 100 | > 100 | 4.2 | > 100 | > 100 | > 100 | > 100 | > 100 | > 100 | > 100 | > 100 | > 100
12 | COc1ccc(-n2cc(-c3cc(OC)c(OC)c(OC)c3)[nH]c2=S)cc1OC | > 100 | > 100 | > 100 | > 100 | > 100 | > 100 | > 100 | > 100 | > 100 | > 100 | > 100 | > 100 | > 100 | > 100 | > 100 | > 100 | > 100 | > 100 | > 100 | > 100
